# Results: patent publication US20090306133A1, “New Acetyl Coenzyme A Carboxylase (ACC) Inhibitors And Uses In Treatments Of Obesity And Diabetes Mellitus - 087” (ASTRAZENECA AB, priority 2007, published 2009)
# What was measured:
# [1] = target: Human recombinant Acetyl-CoA Carboxylase 1 (ACC1) (Homo sapiens, UniProt Q13085); experiment: Assay Y: ACC1 inhibition, inorganic phosphate (Malachite Green); format: biochemical; conditions: Assay Y: room temperature, 3 hr, 15 min preincubation
# How it was run: (§1)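 Enzyme preincubated with compound 15 min before substrate addition; reaction run 3 h, then phosphate detected with Malachite Green at 670 nm after 10 min at room temperature. Triplicate 10-point titrations; IC50 by non-linear four-parameter curve fitting.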
# [2] = target: Human recombinant Acetyl-CoA Carboxylase 2 (ACC2) (Homo sapiens, UniProt O00763); experiment: Assay Y: ACC2 inhibition, inorganic phosphate (Malachite Green); format: biochemical; conditions: Assay Y: room temperature, 3 hr, 15 min preincubation
# How it was run: as §1
# Human recombinant Acetyl-CoA Carboxylase 2 (ACC2), sequence (O00763 whole entry): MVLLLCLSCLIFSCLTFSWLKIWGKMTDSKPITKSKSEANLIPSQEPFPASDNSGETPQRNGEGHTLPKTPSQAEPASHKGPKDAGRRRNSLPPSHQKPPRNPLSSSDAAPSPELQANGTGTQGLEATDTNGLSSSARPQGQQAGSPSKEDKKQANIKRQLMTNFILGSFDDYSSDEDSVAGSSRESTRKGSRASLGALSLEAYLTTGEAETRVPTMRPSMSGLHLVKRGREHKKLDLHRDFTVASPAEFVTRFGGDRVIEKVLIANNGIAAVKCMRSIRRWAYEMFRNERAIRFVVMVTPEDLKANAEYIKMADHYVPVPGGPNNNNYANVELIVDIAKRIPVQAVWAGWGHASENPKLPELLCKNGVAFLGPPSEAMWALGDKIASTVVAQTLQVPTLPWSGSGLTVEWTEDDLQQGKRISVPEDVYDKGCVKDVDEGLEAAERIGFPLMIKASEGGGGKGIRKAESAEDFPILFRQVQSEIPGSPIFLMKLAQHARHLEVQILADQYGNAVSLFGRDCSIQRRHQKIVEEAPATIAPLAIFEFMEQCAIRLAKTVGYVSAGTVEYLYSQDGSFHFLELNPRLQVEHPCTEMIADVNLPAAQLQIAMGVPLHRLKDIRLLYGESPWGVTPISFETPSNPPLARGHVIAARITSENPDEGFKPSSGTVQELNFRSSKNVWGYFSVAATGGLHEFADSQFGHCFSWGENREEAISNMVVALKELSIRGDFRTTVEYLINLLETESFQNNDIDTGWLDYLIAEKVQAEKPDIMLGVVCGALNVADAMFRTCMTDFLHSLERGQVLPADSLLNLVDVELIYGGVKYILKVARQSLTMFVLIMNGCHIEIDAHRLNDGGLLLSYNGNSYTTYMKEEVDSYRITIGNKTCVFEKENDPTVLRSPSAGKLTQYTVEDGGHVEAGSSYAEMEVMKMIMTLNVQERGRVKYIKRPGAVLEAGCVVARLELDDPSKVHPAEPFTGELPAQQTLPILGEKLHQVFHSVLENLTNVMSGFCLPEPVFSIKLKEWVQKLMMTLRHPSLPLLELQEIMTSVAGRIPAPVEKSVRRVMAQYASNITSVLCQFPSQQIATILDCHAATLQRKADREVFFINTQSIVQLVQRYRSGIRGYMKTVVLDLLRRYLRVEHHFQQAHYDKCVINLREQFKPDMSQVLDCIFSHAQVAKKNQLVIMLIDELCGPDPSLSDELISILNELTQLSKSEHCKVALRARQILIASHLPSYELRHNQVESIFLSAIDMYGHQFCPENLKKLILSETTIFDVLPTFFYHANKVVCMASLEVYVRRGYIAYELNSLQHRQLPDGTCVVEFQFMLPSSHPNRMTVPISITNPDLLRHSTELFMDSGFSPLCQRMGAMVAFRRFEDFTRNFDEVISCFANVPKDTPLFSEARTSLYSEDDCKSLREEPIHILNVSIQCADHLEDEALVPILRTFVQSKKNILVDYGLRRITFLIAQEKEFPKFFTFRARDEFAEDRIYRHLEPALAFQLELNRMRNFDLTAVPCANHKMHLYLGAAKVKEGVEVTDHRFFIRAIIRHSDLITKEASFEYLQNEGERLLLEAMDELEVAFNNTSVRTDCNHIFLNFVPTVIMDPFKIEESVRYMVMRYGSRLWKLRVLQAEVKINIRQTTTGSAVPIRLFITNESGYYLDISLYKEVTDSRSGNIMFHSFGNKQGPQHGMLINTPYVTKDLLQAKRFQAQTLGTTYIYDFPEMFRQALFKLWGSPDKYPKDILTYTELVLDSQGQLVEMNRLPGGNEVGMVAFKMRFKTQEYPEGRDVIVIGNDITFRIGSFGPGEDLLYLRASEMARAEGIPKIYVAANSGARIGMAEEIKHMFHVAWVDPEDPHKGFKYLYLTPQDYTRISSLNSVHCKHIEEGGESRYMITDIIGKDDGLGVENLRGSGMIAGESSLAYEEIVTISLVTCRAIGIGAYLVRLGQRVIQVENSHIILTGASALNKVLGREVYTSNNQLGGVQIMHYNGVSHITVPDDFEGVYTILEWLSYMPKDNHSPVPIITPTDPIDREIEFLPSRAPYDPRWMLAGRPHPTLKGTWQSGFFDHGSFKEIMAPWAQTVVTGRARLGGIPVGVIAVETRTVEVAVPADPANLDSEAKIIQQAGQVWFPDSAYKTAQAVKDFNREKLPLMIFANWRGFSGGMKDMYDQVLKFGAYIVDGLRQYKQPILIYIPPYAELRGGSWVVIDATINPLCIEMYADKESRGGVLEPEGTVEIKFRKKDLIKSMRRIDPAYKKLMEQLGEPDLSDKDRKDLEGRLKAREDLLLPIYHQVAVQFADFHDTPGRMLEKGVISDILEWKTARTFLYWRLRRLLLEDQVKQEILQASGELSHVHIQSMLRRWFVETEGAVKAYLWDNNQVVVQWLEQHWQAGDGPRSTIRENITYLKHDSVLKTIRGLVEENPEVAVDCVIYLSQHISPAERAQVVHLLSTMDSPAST
IC50 [1] [µM],IC50 [2] [µM],SMILES
> 20,3.17,"CC(C)(C)OC(=O)NC[C@H]1CC[C@H](CN(CC2CCOCC2)S(=O)(=O)c2ccc3ccccc3c2)CC1 [Example 82, tert-Butyl [(trans-4-{[(2-naphthylsulfonyl)(tetrahydro-2H-pyran-4-ylmethyl)amino]-methyl}cyclohexyl)methyl]carbamate]"
> 20,3.27,"CC(C)(C)OC(=O)NC[C@H]1CC[C@H](CN(CC#N)S(=O)(=O)c2ccc3ccccc3c2)CC1 [Example 83, tert-Butyl [(trans-4-{[(cyanomethyl)(2-naphthylsulfonyl)amino]methyl}cyclohexyl)-methyl]carbamate]"
> 20,4.59,"C=CCN(C[C@H]1CC[C@H](CNC(=O)OC(C)(C)C)CC1)S(=O)(=O)c1ccc2ccccc2c1 [Example 84, tert-Butyl [(trans-4-{[allyl(2-naphthylsulfonyl)amino]methyl}cyclohexyl)methyl]-carbamate]"
> 20,6.69,"CCCCN(C[C@H]1CC[C@H](CNC(=O)OC(C)(C)C)CC1)S(=O)(=O)c1ccc2ccccc2c1 [Example 85, tert-Butyl [(trans-4-{[butyl(2-naphthylsulfonyl)amino]methyl}cyclohexyl)methyl]-carbamate]"
> 20,6.98,"CC(C)(C)OC(=O)NC[C@H]1CC[C@H](CN(CC(F)(F)F)S(=O)(=O)c2ccc3ccccc3c2)CC1 [Example 86, tert-Butyl [(trans-4-{[(2-naphthylsulfonyl)(2,2,2-trifluoroethyl)amino]methyl}cyclo-hexyl)methyl]carbamate]"
> 20,8.71,"CCCN(C[C@H]1CC[C@H](CNC(=O)OC(C)(C)C)CC1)S(=O)(=O)c1ccc2ccccc2c1 [Example 87, tert-Butyl [(trans-4-{[(2-naphthylsulfonyl)(propyl)amino]methyl}cyclohexyl)methyl]-carbamate]"
> 20,2.45,"CN(C[C@H]1CC[C@H](CNC(=O)OC(C)(C)C)CC1)S(=O)(=O)c1ccc2ccccc2c1 [Example 88, tert-Butyl [(trans-4-{[methyl(2-naphthylsulfonyl)amino]methyl}cyclohexyl)methyl]-carbamate]"
> 20,3.03,"Cc1nc(-c2ccc(S(=O)(=O)N(C)C[C@H]3CC[C@H](CNC(=O)OC(C)(C)C)CC3)s2)cs1 [Example 89, tert-Butyl ({trans-4-[(methyl {[5-(2-methyl-1,3-thiazol-4-yl)-2-thienyl]sulfonyl}-amino)methyl]cyclohexyl}methyl)carbamate]"
> 20,2.01,"CCN(C[C@H]1CC[C@H](CNC(=O)OC(C)(C)C)CC1)S(=O)(=O)c1ccc(-c2csc(C)n2)s1 [Example 90, tert-Butyl ({trans-4-[(ethyl {[5-(2-methyl-1,3-thiazol-4-yl)-2-thienyl]sulfonyl}amino)-methyl]cyclohexyl}methyl)carbamate]"
4.82,2.3,"CN(C[C@H]1CC[C@H](CNC(=O)OC(C)(C)C)CC1)C(=O)c1cc(-c2ccccc2)nc2ccccc12 [Example 91, tert-Butyl {[trans-4-({methyl[(2-phenylquinolin-4-yl)carbonyl]amino}methyl)cyclo-hexyl]methyl}carbamate]"
0.26,0.05,"CC(C)(C)OC(=O)NC[C@H]1CC[C@H](CNC(=O)c2cc(-c3ccc(CN)cc3)nc3ccccc23)CC1 [Example 92, tert-Butyl [(trans-4-{[({2-[4-(aminomethyl)phenyl]quinolin-4-yl}carbonyl)amino]-methyl}cyclohexyl)methyl]carbamate acetate]"
5.47,0.93,"CC(C)(C)OC(=O)NC[C@H]1CC[C@H](CNC(=O)c2cc(-c3cc[n+]([O-])cc3)nc3ccccc23)CC1 [Example 94, tert-Butyl ({trans-4-[({[2-(1-oxidopyridin-4-yl)quinolin-4-yl]carbonyl}amino)methyl]-cyclohexyl}methyl)carbamate]"
2.14,0.98,"CC(C)(C)OC(=O)NC[C@H]1CC[C@H](CNS(=O)(=O)c2cc(-c3ccccc3)nc3ccccc23)CC1 [Example 95, tert-Butyl {[trans-4-({[(2-phenylquinolin-4-yl)sulfonyl]amino}methyl)cyclohexyl]-methyl}carbamate]"
> 20,3.64,"CC(C)(C)OC(=O)NC[C@H]1CC[C@H](CNC(=O)c2cccc3ccccc23)CC1 [Example 96, tert-Butyl ({trans-4-[(1-naphthoylamino)methyl]cyclohexyl}methyl)carbamate]"
18.3,6.14,"CC(C)(C)NC(=O)NC[C@H]1CC[C@H](CNC(=O)c2cc(-c3ccncc3)nc3ccccc23)CC1 [Example 97, N-[(trans-4-{[(tert-Butylcarbamoyl)amino]methyl}cyclohexyl)methyl]-2-pyridin-4-ylquinoline-4-carboxamide]"
1.37,0.07,"CC(C)(C)OC(=O)NC[C@H]1CC[C@H](CNC(=O)c2cc(-c3cccc(CNS(C)(=O)=O)c3)nc3ccccc23)CC1 [Example 98, tert-Butyl ({trans-4-[({[2-(3-{[(methylsulfonyl)amino]methyl}phenyl)quinolin-4-yl]carbonyl}amino)methyl]cyclohexyl}methyl)carbamate]"
0.78,0.1,"CC(C)(C)OC(=O)NC[C@H]1CC[C@H](CNC(=O)c2cc(-c3cccc(CNC(N)=O)c3)nc3ccccc23)CC1 [Example 99, tert-Butyl {[trans-4-({[(2-{3-[(carbamoylamino)methyl]phenyl}quinolin-4-yl)-carbonyl]amino}methyl)cyclohexyl]methyl}carbamate]"
0.59,0.11,"CC(=O)NCc1cccc(-c2cc(C(=O)NC[C@H]3CC[C@H](CNC(=O)OC(C)(C)C)CC3)c3ccccc3n2)c1 [Example 100, tert-Butyl [(trans-4-{[({2-[3-(acetamidomethyl)phenyl]quinolin-4-yl}carbonyl)amino]-methyl}cyclohexyl)methyl]carbamate]"
0.17,0.02,"CC(C)(C)OC(=O)NC[C@H]1CC[C@H](CNC(=O)c2cc(-c3ccc(CCN)cc3)nc3ccccc23)CC1 [Example 102, tert-Butyl [(trans-4-{[({2-[4-(2-aminoethyl)phenyl]quinolin-4-yl}carbonyl)amino]-methyl}cyclohexyl)methyl]carbamate]"

SMILES,IC50 [1] [µM],IC50 [2] [µM]
"CCOC(=O)CN(C[C@H]1CC[C@H](CNC(=O)OC(C)(C)C)CC1)S(=O)(=O)c1ccc2ccccc2c1 [Example 81, Ethyl N-[(trans-4-{[(tert-butoxycarbonyl)amino]methyl}cyclohexyl)methyl]-N-(2-naphthylsulfonyl)glycinate]",> 20,3.03
"CC(C)(C)OC(=O)NC[C@H]1CC[C@H](CNC(=O)c2cc(-c3ccc(C(=O)O)cc3)nc3ccccc23)CC1 [Example 93, 4-(4-{[(trans-4-{[(tert-Butoxycarbonyl)amino]methyl}cyclohexyl)methyl]carbamoyl}-quinolin-2-yl)benzoic acid]",1.85,0.17
"COC(=O)NCc1cccc(-c2cc(C(=O)NC[C@H]3CC[C@H](CNC(=O)OC(C)(C)C)CC3)c3ccccc3n2)c1 [Example 101, Methyl [3-(4-{[(trans-4-{[(tert-butoxycarbonyl)amino]methyl}cyclohexyl)methyl]-carbamoyl}quinolin-2-yl)benzyl]carbamate]",2.21,0.15
